Data taken from ChEMBL document CHEMBL2074119, “Multispecific substrate recognition of kidney-specific organic anion transporters OAT-K1 and OAT-K2” (J Pharmacol Exp Ther, 2001).

Experiments:
[1] = biological target: T1, Solute carrier organic anion transporter family member 1A3 (Rattus norvegicus, UniProt P70502); experiment: TP_TRANSPORTER: inhibition of T3 uptake (T3: 0.43nM, MTX: 2500 uM) in OAT-K2-expressing MDCK cells; assay type: functional, cell-based; conditions: dog
T1 sequence (P70502 whole entry): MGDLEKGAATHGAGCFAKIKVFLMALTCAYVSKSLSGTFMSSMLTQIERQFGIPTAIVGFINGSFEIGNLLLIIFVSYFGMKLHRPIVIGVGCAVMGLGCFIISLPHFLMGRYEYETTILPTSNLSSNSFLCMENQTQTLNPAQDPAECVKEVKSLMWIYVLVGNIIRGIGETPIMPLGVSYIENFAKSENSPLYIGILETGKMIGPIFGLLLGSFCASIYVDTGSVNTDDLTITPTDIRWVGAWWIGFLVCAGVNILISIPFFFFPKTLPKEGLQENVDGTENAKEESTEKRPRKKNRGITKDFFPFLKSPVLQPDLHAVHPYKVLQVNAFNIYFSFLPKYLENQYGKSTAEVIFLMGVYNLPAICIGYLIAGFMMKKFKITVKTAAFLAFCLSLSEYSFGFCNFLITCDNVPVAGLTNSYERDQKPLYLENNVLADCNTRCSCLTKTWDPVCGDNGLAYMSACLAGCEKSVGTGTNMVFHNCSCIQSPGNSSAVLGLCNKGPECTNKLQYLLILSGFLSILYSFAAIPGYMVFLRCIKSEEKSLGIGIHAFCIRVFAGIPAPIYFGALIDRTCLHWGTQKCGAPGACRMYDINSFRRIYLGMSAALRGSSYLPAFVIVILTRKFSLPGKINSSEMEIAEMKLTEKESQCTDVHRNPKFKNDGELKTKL

[2] = biological target: T1, Solute carrier organic anion transporter family member 1A3; experiment: TP_TRANSPORTER: inhibition of T3 uptake (T3: 0.43nM, MTX: 2500 uM) in OAT-K1-expressing MDCK cells; assay type: functional, cell-based; conditions: dog
[3] = biological target: T1, Solute carrier organic anion transporter family member 1A3; experiment: TP_TRANSPORTER: inhibition of Taurocholate uptake (Taurocholate: 0.25 uM, DHEA-3-acetate: 100 uM) in OAT-K1-expressing MDCK cells; assay type: functional, cell-based; conditions: dog
[4] = biological target: T1, Solute carrier organic anion transporter family member 1A3; experiment: TP_TRANSPORTER: inhibition of MTX uptake (MTX: 0.1 uM, T4: 50 uM) in OAT-K2-expressing MDCK cells; assay type: functional, cell-based; conditions: dog
[5] = biological target: T1, Solute carrier organic anion transporter family member 1A3; experiment: TP_TRANSPORTER: inhibition of MTX uptake (MTX: 0.1 uM, T3: 50 uM) in OAT-K2-expressing MDCK cells; assay type: functional, cell-based; conditions: dog
[6] = biological target: T2, Solute carrier organic anion transporter family member 1A4 (Rattus norvegicus, UniProt O35913); experiment: TP_TRANSPORTER: inhibition of Digoxin uptake in Xenopus laevis oocytes
T2 sequence (O35913 whole entry): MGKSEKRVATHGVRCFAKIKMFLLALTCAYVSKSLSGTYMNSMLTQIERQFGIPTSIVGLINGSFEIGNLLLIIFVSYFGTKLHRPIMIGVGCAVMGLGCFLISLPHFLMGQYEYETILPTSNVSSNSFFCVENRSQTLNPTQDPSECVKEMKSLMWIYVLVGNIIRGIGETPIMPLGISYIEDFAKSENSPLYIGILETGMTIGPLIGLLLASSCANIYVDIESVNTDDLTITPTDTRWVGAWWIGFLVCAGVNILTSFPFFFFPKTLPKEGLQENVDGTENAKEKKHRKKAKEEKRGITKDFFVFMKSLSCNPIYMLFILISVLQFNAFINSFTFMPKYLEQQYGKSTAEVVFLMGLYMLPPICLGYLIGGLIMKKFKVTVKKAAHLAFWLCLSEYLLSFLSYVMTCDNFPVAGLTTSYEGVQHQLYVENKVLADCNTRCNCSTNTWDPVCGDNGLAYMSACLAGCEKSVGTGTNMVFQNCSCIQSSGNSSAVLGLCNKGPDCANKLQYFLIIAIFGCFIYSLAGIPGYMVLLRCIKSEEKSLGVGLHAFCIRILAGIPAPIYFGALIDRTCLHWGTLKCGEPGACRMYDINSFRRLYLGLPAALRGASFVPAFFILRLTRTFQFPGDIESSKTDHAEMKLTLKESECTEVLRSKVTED

[7] = biological target: T1, Solute carrier organic anion transporter family member 1A3; experiment: TP_TRANSPORTER: inhibition of Taurocholate uptake (Taurocholate: 0.25 uM, OTA: 100 uM) in OAT-K1-expressing MDCK cells; assay type: functional, cell-based; conditions: dog
[8] = biological target: T3, OAT-K2 (Solute carrier organic anion transporter family member 1A3) (Rattus norvegicus, UniProt P70502); experiment: (§1) TP_TRANSPORTER: uptake in OAT-K2-expressing MDCK cells; assay type: functional, cell-based; conditions: dog
T3 sequence (P70502 whole entry): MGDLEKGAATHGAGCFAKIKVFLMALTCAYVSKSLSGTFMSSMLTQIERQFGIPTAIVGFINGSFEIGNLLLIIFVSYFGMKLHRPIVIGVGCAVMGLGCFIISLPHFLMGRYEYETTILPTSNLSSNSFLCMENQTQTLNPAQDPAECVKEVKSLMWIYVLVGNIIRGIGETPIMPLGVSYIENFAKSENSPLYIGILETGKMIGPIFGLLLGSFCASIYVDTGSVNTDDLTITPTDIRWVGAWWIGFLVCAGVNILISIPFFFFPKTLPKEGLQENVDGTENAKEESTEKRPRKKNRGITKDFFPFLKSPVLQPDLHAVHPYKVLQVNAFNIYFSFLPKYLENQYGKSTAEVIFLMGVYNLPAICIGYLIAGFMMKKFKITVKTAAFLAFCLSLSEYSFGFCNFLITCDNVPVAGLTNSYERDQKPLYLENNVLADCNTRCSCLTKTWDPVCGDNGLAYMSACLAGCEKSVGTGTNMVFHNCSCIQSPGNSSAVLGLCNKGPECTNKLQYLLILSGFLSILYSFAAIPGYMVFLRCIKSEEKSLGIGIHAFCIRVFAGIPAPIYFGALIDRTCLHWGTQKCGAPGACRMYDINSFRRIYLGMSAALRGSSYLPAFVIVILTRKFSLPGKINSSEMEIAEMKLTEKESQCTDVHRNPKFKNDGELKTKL

[9] = biological target: T4, OAT-K1 (Solute carrier organic anion transporter family member 1A3) (Rattus norvegicus, UniProt P70502); experiment: (§2) TP_TRANSPORTER: uptake in OAT-K1-expressing MDCK cells; assay type: functional, cell-based; conditions: dog
T4 sequence (P70502 whole entry): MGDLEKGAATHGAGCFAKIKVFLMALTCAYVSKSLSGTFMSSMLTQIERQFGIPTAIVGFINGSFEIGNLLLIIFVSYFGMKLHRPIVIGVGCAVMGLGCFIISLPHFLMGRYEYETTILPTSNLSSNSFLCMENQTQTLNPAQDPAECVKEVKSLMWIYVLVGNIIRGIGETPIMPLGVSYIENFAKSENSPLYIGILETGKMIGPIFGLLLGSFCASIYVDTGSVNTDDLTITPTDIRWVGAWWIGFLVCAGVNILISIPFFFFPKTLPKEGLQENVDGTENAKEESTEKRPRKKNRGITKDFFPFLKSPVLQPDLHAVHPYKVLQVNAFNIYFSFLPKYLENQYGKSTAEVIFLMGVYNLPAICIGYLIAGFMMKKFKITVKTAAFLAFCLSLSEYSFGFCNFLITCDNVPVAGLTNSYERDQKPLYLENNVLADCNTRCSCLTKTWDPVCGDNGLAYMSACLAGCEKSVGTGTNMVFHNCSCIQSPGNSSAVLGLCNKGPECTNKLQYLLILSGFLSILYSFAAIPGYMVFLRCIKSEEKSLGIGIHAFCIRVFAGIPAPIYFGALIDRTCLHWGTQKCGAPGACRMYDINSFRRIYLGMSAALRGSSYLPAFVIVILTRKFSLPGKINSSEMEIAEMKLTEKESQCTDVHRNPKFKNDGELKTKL

[10] = biological target: T1, Solute carrier organic anion transporter family member 1A3; experiment: TP_TRANSPORTER: inhibition of Taurocholate uptake (Taurocholate: 0.25 uM, DHEAS: 100 uM) in OAT-K1-expressing MDCK cells; assay type: functional, cell-based; conditions: dog
[11] = biological target: T1, Solute carrier organic anion transporter family member 1A3; experiment: TP_TRANSPORTER: inhibition of Taurocholate uptake (Taurocholate: 0.25 uM, DHEA: 100 uM) in OAT-K1-expressing MDCK cells; assay type: functional, cell-based; conditions: dog
[12] = substrate: CN(Cc1cnc2nc(N)nc(N)c2n1)c1ccc(C(=O)N[C@@H](CCC(=O)O)C(=O)O)cc1; experiment: as §1; assay type: functional, cell-based
[13] = substrate: C[C@]12CC[C@@H]3c4ccc(O)cc4CC[C@H]3[C@@H]1CC[C@@H]2O[C@@H]1O[C@H](C(=O)O)[C@@H](O)[C@H](O)[C@H]1O; experiment: as §1; assay type: functional, cell-based
[14] = substrate: N[C@@H](Cc1cc(I)c(Oc2cc(I)c(O)c(I)c2)c(I)c1)C(=O)O; experiment: as §1; assay type: functional, cell-based
[15] = substrate: N[C@@H](Cc1cc(I)c(Oc2ccc(O)c(I)c2)c(I)c1)C(=O)O; experiment: as §1; assay type: functional, cell-based
[16] = substrate: [H][C@@]12CC=C3C[C@@H](OS(=O)(=O)O)CC[C@]3(C)[C@@]1([H])CC[C@]1(C)C(=O)CC[C@@]21[H]; experiment: as §1; assay type: functional, cell-based
[17] = substrate: C[C@]12CC[C@@H]3c4ccc(O)cc4CC[C@H]3[C@@H]1CC[C@@H]2O[C@@H]1O[C@H](C(=O)O)[C@@H](O)[C@H](O)[C@H]1O; experiment: as §2; assay type: functional, cell-based
[18] = substrate: N[C@@H](Cc1cc(I)c(Oc2cc(I)c(O)c(I)c2)c(I)c1)C(=O)O; experiment: as §2; assay type: functional, cell-based
[19] = substrate: N[C@@H](Cc1cc(I)c(Oc2ccc(O)c(I)c2)c(I)c1)C(=O)O; experiment: as §2; assay type: functional, cell-based
[20] = substrate: [H][C@@]12CC=C3C[C@@H](OS(=O)(=O)O)CC[C@]3(C)[C@@]1([H])CC[C@]1(C)C(=O)CC[C@@]21[H]; experiment: as §2; assay type: functional, cell-based

In the case of `CN(Cc1cnc2nc(N)nc(N)c2n1)c1ccc(C(=O)N[C@@H](CCC(=O)O)C(=O)O)cc1` [METHOTREXATE], the Activity [1] is reported as “inhibitor [(at a rough estimate) 75 % of control]” and the Activity [2] is reported as “inhibitor [(at a rough estimate) 75 % of control]”.

`CC(=O)O[C@H]1CC[C@@]2(C)C(=CC[C@@H]3[C@@H]2CC[C@]2(C)C(=O)CC[C@@H]32)C1` [DEHYDROEPIANDROSTERONE ACETATE] was tested, and the Activity [3] was “inhibitor [(at a rough estimate) 30 % of control]”.

In the case of `N[C@@H](Cc1cc(I)c(Oc2cc(I)c(O)c(I)c2)c(I)c1)C(=O)O` [LEVOTHYROXINE], the Activity [4] is reported as “inhibitor [(at a rough estimate) 60 % of control]”.

`N[C@@H](Cc1cc(I)c(Oc2ccc(O)c(I)c2)c(I)c1)C(=O)O` [LIOTHYRONINE] was tested, and the Activity [5] was “inhibitor [(at a rough estimate) 60 % of control]” and the IC50 [6] was 50.4 µM.

With `C[C@@H]1Cc2c(Cl)cc(C(=O)N[C@@H](Cc3ccccc3)C(=O)O)c(O)c2C(=O)O1` [3R14S-OCHRATOXIN A] the Activity [7] was “inhibitor [(at a rough estimate) 55 % of control]”, the Km [8] was 16.6 µM and the Km [9] was 5.6 µM.

For `Cc1cn([C@H]2C[C@H](N=[N+]=[N-])[C@@H](CO)O2)c(=O)[nH]c1=O` [ZIDOVUDINE], the Km [8] was 76.3 µM and the Km [9] was 64.3 µM.

With `C[C@]12CC[C@H](OS(=O)(=O)O)CC1=CC[C@@H]1[C@@H]2CC[C@]2(C)C(=O)CC[C@@H]12` [PRASTERONE SULFURIC ACID] the Activity [10] was “inhibitor [(at a rough estimate) 30 % of control]”.

With `C[C@]12CC[C@H](O)CC1=CC[C@@H]1[C@@H]2CC[C@]2(C)C(=O)CC[C@@H]12` [PRASTERONE] the Activity [11] was “inhibitor [(at a rough estimate) 30 % of control]”.

B1: Solute carrier organic anion transporter family member 1A3 (Rattus norvegicus) (protein)
chain: MGDLEKGAATHGAGCFAKIKVFLMALTCAYVSKSLSGTFMSSMLTQIERQFGIPTAIVGFINGSFEIGNLLLIIFVSYFGMKLHRPIVIGVGCAVMGLGCFIISLPHFLMGRYEYETTILPTSNLSSNSFLCMENQTQTLNPAQDPAECVKEVKSLMWIYVLVGNIIRGIGETPIMPLGVSYIENFAKSENSPLYIGILETGKMIGPIFGLLLGSFCASIYVDTGSVNTDDLTITPTDIRWVGAWWIGFLVCAGVNILISIPFFFFPKTLPKEGLQENVDGTENAKEESTEKRPRKKNRGITKDFFPFLKSPVLQPDLHAVHPYKVLQVNAFNIYFSFLPKYLENQYGKSTAEVIFLMGVYNLPAICIGYLIAGFMMKKFKITVKTAAFLAFCLSLSEYSFGFCNFLITCDNVPVAGLTNSYERDQKPLYLENNVLADCNTRCSCLTKTWDPVCGDNGLAYMSACLAGCEKSVGTGTNMVFHNCSCIQSPGNSSAVLGLCNKGPECTNKLQYLLILSGFLSILYSFAAIPGYMVFLRCIKSEEKSLGIGIHAFCIRVFAGIPAPIYFGALIDRTCLHWGTQKCGAPGACRMYDINSFRRIYLGMSAALRGSSYLPAFVIVILTRKFSLPGKINSSEMEIAEMKLTEKESQCTDVHRNPKFKNDGELKTKL
In the case of B1, the Km [12] is reported as 1.8 µM, the Km [13] is reported as 44.9 µM and the Km [14] is reported as 12 µM. It also gave a Km [15] of 24.8 µM, a Km [16] of 7.6 µM and a Km [17] of 35.3 µM. For the same molecule, the Km [18] was 20.2 µM, the Km [19] was 43.8 µM and the Km [20] was 8.5 µM.
